Patent publication US11813277B2, “Methods and agents for modulating inflammation” (The Regents of the University of California, priority 2018, dated 2023)

How the values were obtained:
[1] = test system: M(IL-4) polarization of BMDMs; experiment: Flow cytometry of IL-4-associated cell surface markers in BMDMs; format: cell-based, mouse
Method: (§1) For all gene expression and flow cytometry experiments described below, day 6 BMDM were plated at 3×10^5 cell/well in 12-well plates. The next day, cells were treated with appropriate compounds (and duration as indicated in figures and below) in DMEM supplemented with 5% FBS, 2 mM L-glutamine, 100 units/mL, 100 μg/mL penicillin/streptomycin, 500 μM of sodium pyruvate and 5% v/v conditioned media containing macrophage colony stimulating factor (M-CSF).
(§2) For flow cytometry experiments involving etomoxir (FIG. 1G, FIG. 2A, FIG. 2D, FIG. 3A, FIG. 3B, FIG. 3G, FIG. 3H): BMDMs were mock-treated (media replacement only) or treated with 20 ng/mL of IL-4±3 μM or 200 μM of etomoxir for 48 hr. When measuring expression of M(IL-4)-associated genes in response to etomoxir (FIG. 1H, FIG. 2B), BMDMs were mock-treated or treated with 20 ng/mL of IL4±etomoxir as indicated for 24 hr.
(§3) For experiments involving respiratory chain inhibitors: BMDMs were mock-treated (media replacement only) or treated with 20 ng/mL of IL4±1.2 μM oligomycin (Oligo), 200 nM rotenone (Rot), 200 nM antimycin A (AntiA), 100 nM piericidin A (PierA), or 5 μM carboxyatractylate (CAT) for either 24 (FIG. 4G, FIG. 4H, FIG. 6G) or 48 hr (FIG. 4F, FIG. 7D). All inhibitors were given as co-treatments simultaneously with IL-4.
For experiments involving CoA supplementation (FIG. 10A, FIG. 10B, FIG. 10C, FIG. 10D, FIG. 10E, FIG. 9C, FIG. 9D): BMDMs were mock-treated (media replacement only) or treated with 20 ng/mL of IL4±etomoxir (concentration indicated in figures)±CoA (concentration indicated in figures) for 48 hr. Etomoxir and CoA were given as co-treatments simultaneously with IL-4.
Prior to FACS analysis, BMDMs were detached using 350 μL of Accutase, followed by two washes with FACS buffer (PBS+1% (v/v) BSA+0.05% (w/v) sodium azide). Anti-mouse CD16/32 antibody was used at a dilution of 1:500, while all other antibodies were used at a dilution of 1:250. All flow cytometry data were captured using BD FACSVerse flow cytometer and analyzed using the FlowJo X 10.0.7r2 software. In all, 2×104 live events were acquired for each sample (gated on DAPIneg). For analysis, CD206+/CD71+ and CD206+/CD301+ populations were gated based on Fluorescence Minus One (FMO) controls.

BMDMs [2] = experiment: Basal mitochondrial respiration in intact BMDMs; format: cell-based, mouse
Method: All respirometry studies were conducted in either a Seahorse XF96 or XFe96 Analyzer. All experiments were conducted at 37° C., and at pH 7.4 (intact cells) or 7.2 (permeabilized cells and isolated mitochondria). Calculation of respiratory parameters was made according to standard protocols (Divakaruni, A. S., Paradyse, A., Ferrick, D. A., Murphy, A. N., and Jastroch, M. (2014a) Analysis and interpretation of microplate-based oxygen consumption and pH data. Meth. Enzym 547, 509-54), and all rates were corrected for non-mitochondrial respiration/background signal by subtracting the oxygen consumption rate insensitive to rotenone plus antimycin A.
Respiration in intact BMDMs was measured in medium containing 8 mM glucose, 2 mM glutamine, 2 mM pyruvate, and 5 mM HEPES. Cells were plated at 5.0×10^4 cells/well and assayed after 48 hr. When measuring the response to IL-4, cells were treated with 20 ng/mL of IL-4 24 hr. after initial plating, and respiration was measured the following day (˜48 hr after initial seeding). […]

BMDMs [3] = experiment: Intracellular free coenzyme A levels in BMDMs; format: cell-based, mouse; conditions: IL-4
Method: On Day 6 of differentiation, BMDMs were seeded at 1.2×10^6 cells/well in 6-well plates. 24 hr later, BMDMs were mock-treated or co-treated with 20 ng/mL IL-4±200 μM etomoxir±500 μM CoA in DMEM supplemented with 5% FBS, 2 mM L-glutamine, 100 units/mL, […] penicillin/streptomycin, 500 μM of sodium pyruvate and 5% v/v conditioned media containing macrophage colony stimulating factor (M-CSF) for 20 hr. Prior to sample collections, cells were washed with 600 μL of 0.9% (w/v) NaCl twice. Three wells per replicate per treatment were combined in 2 mL centrifuge tubes and centrifuged at 500 g for 5 mins at 4° C. The supernatant was removed, and the cell pellet was re-suspended in 75 μL of ice-cold 0.7% (v/v) perchloric acid for 5 min. Samples were then centrifuged at 10,000 g for 7 mins at 4° C. and the resulting supernatant was adjusted to pH 7 with 2M NaOH and 500 mM K2HPO4. The coenzyme A concentration was determined with Coenzyme A Assay Kit following manufacturer's instructions (Sigma MAK034) using 40 μL of sample supernatant. Coenzyme A levels were normalized to total cellular protein (BCA method).

acute liver injury = experiment: Murine acute liver injury model; format: in vivo
Limonoids sigmodontis = experiment: Murine model of nematode infection; conditions: mouse, in vivo
diet-induced NASH = experiment: Rat model of diet-induced NASH; format: in vivo
LCFA oxidation in BMDMs = experiment: 9,10-3H-palmitate oxidation (3H2O release) in BMDMs; format: cell-based, mouse; conditions: 200 nM rotenone or 200 nM antimycin A, IL-4-stimulated
Method: BMDMs at day 6 of differentiation were seeded at 3×10^5 cells/well in 12 well plates in BMDM media. The next day, cells were treated in DMEM containing 25 mM glucose supplemented with 5% FBS, 2 mM L-Glutamax, 100 units/mL, 100 μg/mL penicillin/streptomycin, 1 mM of sodium pyruvate, 1 mM carnitine, and 5% v/v conditioned media containing macrophage colony stimulating factor (M-CSF) under one of 5 conditions: control, 20 ng/mL of IL-4±3 μM or 200 μM of etomoxir, or 200 nM rotenone, or 200 nM antimycin A for 24 hr. Fatty acid oxidation was measured 24 hours later as previously described (Rognstad, R. (1991) Estimation of peroxisomal and mitochondrial fatty acid oxidation in rat hepatocytes using tritiated substrates. Biochem J 279:147-150, 1991; Cha, B. S., Ciaraldi, T. P., Park, K. S., Carter, L., Mudaliar, S. R., and Henry R R. (2005) Impaired fatty acid metabolism in type 2 diabetic skeletal muscle cells is reversed by PPARgamma agonists. Am J Physiol Endocrinol Metab. 289, E151-9) following a fluid change to DMEM with components as described above except 10 mM glucose and 0.2 μCi (final concentration of 5 μM) BSA-conjugated [9,10-3H]palmitic acid. No additional IL-4 was added at the time of this fluid change, but etomoxir, rotenone and antimycin A were added, and the plates were placed in a […] incubator at 37° C. for 3 hr. After incubation, a 100 μL aliquot of the culture medium was passed over an ion-exchange resin, and the column was washed twice with 0.75 ml of water. Free fatty acids were retained by the resin, whereas the tritium hydrolyzed from radiolabeled palmitate catabolism was released as labeled water, which passes freely through the resin, and is subsequently counted for radioactivity. All data are corrected for protein content in each well. There were 3 technical replicates for each condition, and 4 biological replicates arising from 4 separate animals.

[4] = test system: Relma, Mgl2, Ym1, Fabp4, Arg1 expression; experiment: qPCR of IL-4-associated genes in BMDMs; format: cell-based, mouse; conditions: IL-4, 24 hr
Method: as §1, §2, §3
RNA was isolated with TRIzol, then cDNA was synthesized with high-capacity cDNA reverse transcription kit. KAPA SYBR FAST qPCR Master Mix kit and a LightCycler 480 were used for quantitative RT-PCR. Fold change related to the control group was calculated using […] with 36b4 as the reference gene.

BMDMs [5] = experiment: Cellular ATP production rates from respirometry and lactate assay; format: cell-based, mouse; conditions: 200 nM rotenone, IL-4 24 hr
Method: Respiration in intact BMDMs was measured in medium containing 8 mM glucose, 2 mM glutamine, 2 mM pyruvate, and 5 mM HEPES. Cells were plated at 5.0×10^4 cells/well and assayed after 48 hr. When measuring the response to IL-4, cells were treated with 20 ng/mL of IL-4 24 hr. after initial plating, and respiration was measured the following day (˜48 hr after initial seeding). Respiration was measured in response to oligomycin (1 μM), FCCP (1.2 μM), and rotenone (0.2 μM) with antimycin A (1 μM).
Under conditions matching intact cell respirometry for BMDMs, the extracellular medium was harvested and lactate was analyzed as previously described (Mookerjee, S. A., Goncalves, R. L., Gerencser, A. A., Nicholls, D. G., and Brand, M. D. (2015). The contributions of respiration and glycolysis to extracellular acid production. Biochim et Biophys Acta. 1847, 171-81; Divakaruni, A. S., Wallace, M., Buren, C., Martyniuk, K., Andreyev, A. Y., Li, E., Fields, J. A., Cordes, T., Reynolds, I. J., Bloodgood, B. L., et al., (2017b) Inhibition of the mitochondrial pyruvate carrier protects from excitotoxic neuronal death. J. Cell Biol. 216, 1091-1105). […] The reaction velocity was measured after 2 min (340/460 nm excitation/emission). […]

[6] = 500 μM CoA, absence of etomoxir

With `CC(C)(COP(=O)(O)OP(=O)(O)OC[C@H]1O[C@@H](n2cnc3c(N)ncnc32)[C@H](O)[C@@H]1OP(=O)(O)O)[C@@H](O)C(=O)NCCC(=O)NCCS` [CoA, [(2R,3S,4R,5R)-5-(6-aminopurin-9-yl)-4-hydroxy-3-phosphonooxy-oxolan-2-yl]methyl [hydroxy-[(3R)-3-hydroxy-2,2-dimethyl-4-oxo-4-[[3-oxo-3-(2-sulfanylethylamino)propyl]amino]butoxy]phosphoryl] hydrogen phosphate] the “rescue of cell surface marker expression” value ([1]; 200 μM etomoxir, varying CoA) was “concentration-dependent function of exogenously added CoA”, the “reduction of CD206+/CD71+ cells upon etomoxir treatment” value ([1]; 500 μM CoA with 200 μM etomoxir, IL-4) was “can be rescued” and the “IL-4-induced expression of CD206 and CD71” value [1, 6] was “significantly increased”. For the same compound, the polarization ([1]; CoA, absence of IL-4) was “no effect on polarization”, the “etomoxir-induced reduction in CD206+/CD71+ cells” value ([1]; LysM-Cre Cpt1a-/-, LysM-Cre Cpt2-/-, CD11c-Cre Cpt1a-/- BMDMs, 200 μM etomoxir, 500 μM CoA) was “could be rescued” and the basal respiration (BMDMs [2]; CoA supplementation, BMDMs treated with excess etomoxir) was “did not alter basal respiration”. The oxygen consumption (BMDMs [2]; CoA with IL-4) was “does not enhance oxygen consumption”, the “intracellular free CoA levels” value (BMDMs [3]; 500 μM CoA with 200 μM etomoxir) was “could be restored” and the “intracellular free CoA levels” value (BMDMs [3]; [6]) was “significantly increased”. For the same compound, the “healing time and resolution of injury” value (acute liver injury; intravenous) was “decrease healing time and improve the extent of resolution from the injury”, the “expression of alternative liver macrophage activation biomarkers” value (acute liver injury; peritoneal macrophages and/or Kupffer cells) was “Increased expression” and the “parasite burden and replication” value (Limonoids sigmodontis) was “reduce parasite burden and replication”.

With `CC(CNC(=O)[C@H](O)C(C)(C)CO)C(=O)NCCc1ccccc1` (stereo partly drawn) [alpha-methyl-N-phenethyl-pantothenamide] the “expression of alternative macrophage activation biomarkers” value (diet-induced NASH; Kupffer cells and/or myeloid-derived precursors from the liver) was “Decreased expression” and the “inflammation and fibrosis in the liver” value (diet-induced NASH; intravenous) was “reduce inflammation and fibrosis in the liver”.

In the case of `C=C(C)[C@H]1Cc2c(ccc3c2O[C@@H]2COc4cc(OC)c(OC)cc4[C@@H]2C3=O)O1` [rotenone], the “3H2O release from 9,10-3H-palmitate” value (LCFA oxidation in BMDMs) is reported as “suppressed LCFA oxidation to levels in line with 200 μM etomoxir”, the “population of CD206+/CD71+ cells” value ([1]; oxidative phosphorylation inhibitors co-treated with IL-4) is reported as “none of the inhibitors of ATP synthesis or the electron transport chain significantly lowered” and the “IL-4-induced expression of Relma, Ym1, Mgl2” value ([4]; electron transport chain inhibitors) is reported as “failed to reduce”. For the same compound, the “expression of Ym1 and Arg1” value ([4]; mitochondrial inhibitors) was “increased expression”, the “respiration at 24 hr” value (BMDMs [2]; 1.2 μM oligomycin, 200 nM rotenone, 200 nM antimycin A, 100 nM piericidin A, 5 μM CAT) was “strongly reduced respiration” and the “ATP production from oxidative phosphorylation” value (BMDMs [5]) was “limited ATP production from oxidative phosphorylation”. The “overall rates of energy metabolism (ATP production)” value (BMDMs [5]) was “maintain overall rates of energy metabolism”.
